Source: patent publication US11912695B2, “Benzodiazepine derivatives as RSV inhibitors” (ENANTA PHARMACEUTICALS, INC., priority 2019, dated 2024)

Assays:
[1] = test system: Human RSV-A (“Long” strain); test: RSV-A assay (CPE, ATPlite) in Hep-2 cells; format: cell-based; conditions: human respiratory syncytial virus, 120 h, MOI 0.1, 5-day incubation, ATPlite readout
From the text: Hep-2 cells, (originally derived from tumors grown in irradiated-cortisonised weanling rats that had been injected with epidermoid carcinoma tissue from a person's larynx, but later found to be indistinguishable from HeLa cells by PCR DNA analysis), were used for the culturing of genotype A, “Long” strain RSV. Flasks were inoculated with RSV and viral stocks were collected once cytopathic effect (CPE) was greater than 90%. Viral stocks in 25% sucrose media were snap frozen using liquid nitrogen to increase viral stability. Viral stock titers were quantified by tissue culture infectious dose 50% (TCID50) using 8,000 cells per well and 3-fold viral dilutions across a 96-well plate, cultured for 4 days. Viral stock titers were also quantified by a plaque forming unit assay, as described elsewhere.
Following extensive parameter testing, the final assay is run as follows: Hep-2 cells are seeded into the inner 60 wells of a 96-well plate at 8,000 cells per well in a volume of 50 μL using Growth Media (DMEM without phenol red, 1% L-Glut, 1% Penn/Strep, 1% nonessential amino acids, 10% heat-inactivated FBS). 2-fold serial dilutions of control and test compounds are added to the wells in duplicate in a total volume of 25 μL. Viral stock is then added to the wells at a multiplicity of infection (MOI) of 0.1 in a volume of 25 μL, bringing the total volume of each well to 100 μL. The MOI is calculated using the PFU/mL, or TCID50 if unavailable. Each 96-well plate has a control column of 6 wells with cells and virus but no compound (negative control, max CPE), a column with cells but no compound or virus (positive control, minimum CPE), and a column with no cells or virus or compound (background plate/reagent control). The control wells with cells but no virus are given an additional 25 μL of growth media containing an equal quantity of sucrose as those wells receiving the viral stock in order to keep consistent in media and volume conditions. The outer wells of the plate are filled with 125 μL of moat media (DMEM, 1% Penn/Strep) to act as a thermal and evaporative moat around the test wells. Following a 5-day incubation period, the plates are read using ATPlite (50 μL added per well), which quantifies the amount of ATP (a measure of cell health) present in each well. Assay plates are read using the Envision luminometer. In parallel, cytotoxicity is examined on an additional 96-well plate treated in an identical manner, but substituting the 25 μL of viral stock for 25 μL of growth media. […] EC50 ranges are as follows: A<0.4 μM; B 0.4-0.8 μM; C>0.8 μM.

[2] = test system: Human RSV-B (genotype B, strain 9320); test: RSV-B assay (qPCR or ATPlite) in A549 cells; format: cell-based; conditions: human respiratory syncytial virus, 144 h, strain 9320, MOI 0.5, 6 days post infection, qPCR or ATPlite readout
From the text: Hep-2 cells, (originally derived from tumors grown in irradiated-cortisonised weanling rats that had been injected with epidermoid carcinoma tissue from a person's larynx, but later found to be indistinguishable from HeLa cells by PCR DNA analysis), were used for the culturing of genotype B, strain 9320. Flasks were inoculated with RSV-B and viral stocks were collected once cytopathic effect (CPE) was greater than 90%. Viral stocks in 25% sucrose media were snap frozen using liquid nitrogen to increase viral stability. Viral stock titers were quantified by tissue culture infectious dose 50% (TCID50) using 8,000 cells per well and 5-fold viral dilutions across a 96-well plate, cultured for 4 days. Viral stock titers were also quantified by a plaque forming unit assay, as described elsewhere.
The assay is run as follows: A549 cells (originally derived through explant culture from a person's carcinomatous lung tissue) are seeded into the inner 60 wells of a 96-well plate at 3,000 cells per well in a volume of 50 μL using A549 growth media (F-12K Media, 1% Penn/Strep, 1% nonessential amino acids, 10% heat-inactivated FBS). 2-fold serial dilutions of control and test compounds are added to the wells in duplicate in a total volume of 25 μL. Viral stock is then added to the wells at a multiplicity of infection (MOI) of 0.5 in a volume of 25 μL, bringing the total volume of each well to 100 μL. The MOI is calculated using the PFU/mL, or TCID50 if unavailable. Each 96-well plate has a control column of 6 wells with cells and virus but no compound (negative control, max CPE), a column with cells but no compound or virus (positive control, minimum CPE), and a column with no cells or virus or compound (background plate/reagent control). The control wells with cells but no virus are given an additional 25 μL of growth media containing an equal quantity of sucrose as those wells receiving the viral stock in order to keep consistent in media and volume conditions. The outer wells of the plate are filled with 125 μL of moat media (DMEM, 1% Penn/Strep) to act as a thermal and evaporative moat around the test wells. 6 days post infection, the plates are read using qPCR or ATP lite (50 μL added per well), which quantifies the amount of ATP (a measure of cell health) present in each well. Assay plates treated with APTlite are read using the Envision luminometer. […] EC50 ranges are as follows: A<0.4 μM; B 0.4-0.8 μM; C>0.8 μM.

In the case of Cc1ncc(-c2sc(C3(C(F)(F)F)CC3)nc2-c2nnc(N[C@@H]3N=C(c4ccccc4)c4cccc(F)c4NC3=O)o2)cn1 [Example 72], the EC50 [1] is reported as over 800 nM and the EC50 [2] is reported as under 400 nM.
Work on CCc1ncc(-c2sc(C3CC3)nc2-c2nnc(N[C@H]3N=C(c4ccccc4)c4cccc(F)c4NC3=O)o2)cn1 [Example 43] yielded an EC50 [1] of under 400 nM and an EC50 [2] of under 400 nM.
Cc1ncc(-c2sc(C)nc2-c2nnc(N[C@@H]3N=C(c4ccccc4)c4cccc(F)c4NC3=O)o2)cn1 [Example 38] showed an EC50 [1] of under 400 nM and an EC50 [2] of under 400 nM.
With CCc1ncc(-c2cc(C(F)(F)F)cnc2-c2nnc(N[C@H]3N=C(c4ccccc4)c4ccccc4NC3=O)o2)cn1 [Example 29] the EC50 [1] was under 400 nM and the EC50 [2] was under 400 nM.
With Cc1ncc(-c2sc(C3CC3)nc2-c2nnc(N[C@@H]3N=C(c4ccccc4)c4cccc(F)c4NC3=O)o2)cn1 [Example 55] the EC50 [1] was over 800 nM and the EC50 [2] was under 400 nM.
CCc1ncc(-c2cccnc2-c2nnc(NC3N=C(c4ccccc4)c4ccccc4NC3=O)o2)cn1 (stereo not shown) [Example 15] was tested, and the EC50 [1] was over 800 nM and the EC50 [2] was under 400 nM.
CCc1ncc(-c2sc(C3(C(F)(F)F)CC3)nc2-c2nnc(N[C@H]3N=C(c4ccccc4)c4cccc(F)c4NC3=O)o2)cn1 [Example 63] gave an EC50 [1] of under 400 nM and an EC50 [2] of under 400 nM.
Work on Cc1ncc(-c2cc(C(F)(F)F)cnc2-c2nnc(N[C@H]3N=C(c4ccccc4)c4ccccc4NC3=O)o2)cn1 [Example 26] yielded an EC50 [1] of under 400 nM and an EC50 [2] of under 400 nM.
Compound CCc1ncc(-c2cc(C(F)(F)F)cnc2-c2nnc(N[C@H]3N=C(c4ccccc4)c4cccc(F)c4NC3=O)o2)cn1 [Example 28] has an EC50 [1] of under 400 nM and an EC50 [2] of under 400 nM.
Cc1nc(-c2nnc(N[C@H]3N=C(c4ccccc4)c4cccc(F)c4NC3=O)o2)c(-c2cnc(C3CC3)nc2)s1 [Example 41] gave an EC50 [1] of under 400 nM and an EC50 [2] of under 400 nM.
CCc1ncc(-c2sc(C3(C(F)(F)F)CC3)nc2-c2nnc(N[C@@H]3N=C(c4ccccc4)c4ccccc4NC3=O)o2)cn1 [Example 70] gave an EC50 [1] of over 800 nM and an EC50 [2] of over 800 nM.
For O=C1Nc2c(F)cccc2C(c2ccccc2)=N[C@H]1Nc1nnc(-c2nc(C3CCC3)sc2-c2cnc(C3CC3)nc2)o1 [Example 64], the EC50 [1] was over 800 nM and the EC50 [2] was under 400 nM.
For CCc1ncc(-c2sc(C3(C(F)(F)F)CC3)nc2-c2nnc(N[C@@H]3N=C(c4ccccc4)c4cccc(F)c4NC3=O)o2)cn1 [Example 62], the EC50 [1] was 400 to 800 nM and the EC50 [2] was under 400 nM.
Work on O=C1Nc2c(F)cccc2C(c2ccccc2)=N[C@@H]1Nc1nnc(-c2ncc(C3CC3)cc2-c2cnc(C3CC3)nc2)o1 [Example 76] yielded an EC50 [1] of under 400 nM and an EC50 [2] of under 400 nM.
CCc1ncc(-c2sc(C3(C)CC3)nc2-c2nnc(N[C@H]3N=C(c4ccccc4)c4cccc(F)c4NC3=O)o2)cn1 [Example 69] was tested, and the EC50 [1] was under 400 nM and the EC50 [2] was under 400 nM.
Work on O=C1Nc2ccccc2C(c2ccccc2)=NC1Nc1nnc(-c2ncc(C(F)(F)F)cc2-c2cnc(C(F)(F)F)nc2)o1 (stereo not shown) [Example 10] yielded an EC50 [1] of over 800 nM and an EC50 [2] of over 800 nM.
CC(C)(F)c1ncc(-c2cc(C(F)(F)F)cnc2-c2nnc(NC3N=C(c4ccccc4)c4ccccc4NC3=O)o2)cn1 (stereo not shown) [Example 12] gave an EC50 [1] of over 800 nM and an EC50 [2] of over 800 nM.
Work on O=C1Nc2c(F)cccc2C(c2ccccc2)=N[C@@H]1Nc1nnc(-c2ncc(C(F)(F)F)cc2-c2cnc(C3CC3)nc2)o1 [Example 24] yielded an EC50 [1] of under 400 nM and an EC50 [2] of under 400 nM.
CCc1ncc(-c2sc(C(F)(F)F)nc2-c2nnc(NC3N=C(c4ccccc4)c4ccccc4NC3=O)o2)cn1 (stereo not shown) [Example 35] was tested, and the EC50 [1] was under 400 nM and the EC50 [2] was under 400 nM.
Work on Cc1ncc(-c2sc(C3(C)CC3)nc2-c2nnc(N[C@H]3N=C(c4ccccc4)c4cccc(F)c4NC3=O)o2)cn1 [Example 67] yielded an EC50 [1] of under 400 nM and an EC50 [2] of under 400 nM.
Compound CCc1ncc(-c2sc(C3CC3)nc2-c2nnc(N[C@@H]3N=C(c4ccccc4)c4cccc(F)c4NC3=O)o2)cn1 [Example 44] has an EC50 [1] of under 400 nM and an EC50 [2] of under 400 nM.
O=C1Nc2c(F)cccc2C(c2ccccc2)=N[C@@H]1Nc1nnc(-c2nc(C3(C(F)(F)F)CC3)sc2-c2cnc(C3CC3)nc2)o1 [Example 75] showed an EC50 [1] of under 400 nM and an EC50 [2] of under 400 nM.
In the case of Cc1ncc(-c2nc(C(F)(F)F)ccc2-c2nnc(N[C@H]3N=C(c4ccccc4)c4ccccc4NC3=O)o2)cn1 [Example 21], the EC50 [1] is reported as 400 to 800 nM and the EC50 [2] is reported as under 400 nM.
For O=C1Nc2ccccc2C(c2ccccc2)=NC1Nc1nnc(-c2ncc(C(F)(F)F)cc2-c2cnc(F)nc2)o1 (stereo not shown) [Example 17], the EC50 [1] was over 800 nM and the EC50 [2] was over 800 nM.
Compound Cc1ncc(-c2sc(C3(C)CC3)nc2-c2nnc(N[C@@H]3N=C(c4ccccc4)c4cccc(F)c4NC3=O)o2)cn1 [Example 66] has an EC50 [1] of 400 to 800 nM and an EC50 [2] of under 400 nM.
CCc1nc(-c2nnc(N[C@@H]3N=C(c4ccccc4)c4cccc(F)c4NC3=O)o2)c(-c2cnc(C3CC3)nc2)s1 [Example 53] was tested, and the EC50 [1] was 400 to 800 nM and the EC50 [2] was under 400 nM.
O=C1Nc2ccccc2C(c2ccccc2)=NC1Nc1nnc(-c2ncccc2-c2cnc(C3CC3)nc2)o1 (stereo not shown) [Example 16] gave an EC50 [1] of 400 to 800 nM and an EC50 [2] of under 400 nM.
With Cc1ncc(-c2sc(C3CCC3)nc2-c2nnc(N[C@H]3N=C(c4ccccc4)c4cccc(F)c4NC3=O)o2)cn1 [Example 61] the EC50 [1] was under 400 nM and the EC50 [2] was under 400 nM.
O=C1Nc2ccccc2C(c2ccccc2)=N[C@@H]1Nc1nnc(-c2ccc(C(F)(F)F)nc2-c2cnc(C3CC3)nc2)o1 [Example 22] showed an EC50 [1] of 400 to 800 nM and an EC50 [2] of under 400 nM.
Work on CC(F)(F)c1ncc(-c2cc(C(F)(F)F)cnc2-c2nnc(NC3N=C(c4ccccc4)c4ccccc4NC3=O)o2)cn1 (stereo not shown) [Example 11] yielded an EC50 [1] of over 800 nM and an EC50 [2] of 400 to 800 nM.
Work on CCc1ncc(-c2sc(C3CCC3)nc2-c2nnc(N[C@H]3N=C(c4ccccc4)c4cccc(F)c4NC3=O)o2)cn1 [Example 58] yielded an EC50 [1] of under 400 nM and an EC50 [2] of under 400 nM.
Compound Cc1ncc(-c2cc(C(F)(F)F)cnc2-c2nnc(NC3N=C(c4ccccc4)c4ccccc4NC3=O)o2)cn1 (stereo not shown) [Example 1] has an EC50 [1] of under 400 nM and an EC50 [2] of under 400 nM.
In the case of CCc1ncc(-c2sc(C3(C)CC3)nc2-c2nnc(N[C@@H]3N=C(c4ccccc4)c4cccc(F)c4NC3=O)o2)cn1 [Example 68], the EC50 [1] is reported as under 400 nM and the EC50 [2] is reported as under 400 nM.
Cc1ncc(-c2sc(C3(C(F)(F)F)CC3)nc2-c2nnc(N[C@H]3N=C(c4ccccc4)c4cccc(F)c4NC3=O)o2)cn1 [Example 73] was tested, and the EC50 [1] was under 400 nM and the EC50 [2] was under 400 nM.
Work on CCc1ncc(-c2sc(C3CC3)nc2-c2nnc(N[C@@H]3N=C(c4ccccc4)c4ccccc4NC3=O)o2)cn1 [Example 49] yielded an EC50 [1] of 400 to 800 nM and an EC50 [2] of under 400 nM.
In the case of CCc1ncc(-c2sc(C3CC3)nc2-c2nnc(N[C@H]3N=C(c4ccccc4)c4ccccc4NC3=O)o2)cn1 [Example 50], the EC50 [1] is reported as under 400 nM and the EC50 [2] is reported as under 400 nM.
Compound C#Cc1ncc(-c2cc(C(F)(F)F)cnc2-c2nnc(NC3N=C(c4ccccc4)c4ccccc4NC3=O)o2)cn1 (stereo not shown) [Example 19] has an EC50 [1] of over 800 nM and an EC50 [2] of 400 to 800 nM.
O=C1Nc2ccccc2C(c2ccccc2)=N[C@@H]1Nc1nnc(-c2ncc(CO)cc2-c2cnc(C3CC3)nc2)o1 [Example 97] gave an EC50 [1] of under 400 nM and an EC50 [2] of under 400 nM.
